Measured values published in publication PMC5931096, “A Phase I study of the novel immunomodulatory agent PG545 (pixatimod) in subjects with advanced solid tumours” (British Journal of Cancer, 2018).
“Also recorded” adds a separate entry of the source. Where two headings read alike, the source gives them in different places.

What was measured:
[1] = Plasma pharmacokinetics (LC-MS/MS, population PK model and NCA); format: in vivo, human; conditions: for AUC / Cmax / AUC(0-t) / half-life: human, plasma, intravenous
Description: Plasma samples were obtained for the first (day 1) and fourth (day 22) doses, as follows: (1) pre-dosing (no more than 4 h prior to infusion start); (2) mid-point of infusion; prior to completion of infusion; 30 min post-infusion; then 2, 4, 6, 24, 48, 72, 144 and 168 h post-infusion. Samples were analysed for PG545 concentration using a validated liquid chromatography with tandem mass spectrometry (LC-MS/MS) assay.[13] A population PK model was developed using NONMEM® and individual non-compartmental analysis-type exposure parameter estimation was also performed.

[2] = tested on: tumour-associated macrophages (TAM); set-up: method as in PMID 24970482, PMID 23696215; conditions: preclinical cancer models; cited from earlier work
pDC and NK cells = assay: Flow cytometry of PBMC for DC and NK cell activation; format: in vivo, human
Description: (§1) Plasma and peripheral blood mononuclear cell (PBMC) samples were obtained at various points for PD assessment with the exception of the 25 mg cohort, where PBMC were not collected. Plasma samples were analysed for the concentration of various markers, including cytokines, chemokines and heparanase using commercial ELISA (LifeSpan Biosciences, Seattle, WA), and array kits (Quansys, Logan, UT).
Cryopreserved PBMC samples were analysed by flow cytometry for changes in abundance and activation status of DC and NK cells at day 3 post-treatment compared with pre-dose samples (day 1). Given the stimulatory nature of PG545 via TLR9 reported in mice,[18] efforts were primarily focussed on the assessments of pDC and NK cells though certain subjects with available sample underwent additional analyses. To assess pDC, cells were stained with antibodies to HLADR-peCy7, CD303-FITC, IFNα-647 (BD Biosciences, Franklin Lakes, NJ). To assess NK cells, cells were stained with antibodies to CD335-PE, CD3-APC, IFNγ-FITC (BD Biosciences). All intracellular cytokine staining samples were stimulated by 100 ng/mL PMA, 100 ng/mL ionomycin and 5 μg/mL Brefeldin A for 4 h at 37 °C. Samples were acquired using FACSCanto flow cytometers (BD Biosciences).

[3] = tested on: advanced solid malignancies; assay: Clinical activity by RECIST 1.1; format: in vivo, human
Description: All patients were assessed for safety, those who received at least one dose of PG545 were evaluated for efficacy. Safety assessment included the incidence of all adverse events (AEs), irrespective of relationship to study drug, according to the National Cancer Institute Common Terminology Criteria for Adverse Events, version 4.0, and the incidence of patients experiencing dose modifications and/or premature discontinuation of study drug. Dose-limiting toxicities (DLTs) used to determine the MTD were defined as occurring during Cycle 1 of treatment only and related to PG545 according to investigator assessment. If no DLT occurred in the first three subjects, the next three-subject cohort was enrolled at the next highest available dose level. If a single DLT occurred, an additional three subjects was enrolled at the same dose level. Dose escalation continued until two subjects of the cohort experienced a DLT; this was defined as the toxic dose level. The dose-escalation phase was completed and MTD determined by reducing the dose to the next lowest dose compared to the toxic dose and expanding this cohort to at least 6 subjects.
Subjects with measurable disease were assessed by computed tomography at baseline and every 8 weeks according to Response Evaluation Criteria in Solid Tumours (RECIST), version 1.1 criteria.

[4] = tested on: plasma IFNγ, TNFα, IP-10 and MCP-1; assay: Plasma cytokine/chemokine biomarkers (ELISA, array kits); format: in vivo, human
Description: as §1

[5] = 100 mg, dose number 1, NCA mean
[6] = 100 mg, dose number 4, NCA mean
[7] = 150 mg, dose number 1, NCA mean
[8] = 150 mg, dose number 4, NCA mean

With `CC(C)CCC[C@@H](C)[C@H]1CC[C@H]2[C@@H]3CC[C@H]4C[C@@H](O[C@@H]5O[C@H](COS(=O)(=O)O)[C@@H](O[C@H]6O[C@H](COS(=O)(=O)O)[C@@H](O[C@H]7O[C@H](COS(=O)(=O)O)[C@@H](O[C@H]8O[C@H](COS(=O)(=O)O)[C@@H](OS(=O)(=O)O)[C@H](OS(=O)(=O)O)[C@H]8OS(=O)(=O)O)[C@H](OS(=O)(=O)O)[C@H]7OS(=O)(=O)O)[C@H](OS(=O)(=O)O)[C@H]6OS(=O)(=O)O)[C@H](OS(=O)(=O)O)[C@H]5OS(=O)(=O)O)CC[C@]4(C)[C@H]3CC[C@]12C` [PG545] the “Exposure (AUC0–168 and Cmax) relative to dose” value ([1]; 150 mg dose level) was “sub-proportional”, the “Dose proportionality of exposure” value ([1]; 25-150 mg) was “proportional up to 100 mg; also recorded: general dose-proportionate exposure up to 100 mg” and the AUC ([1]; 25 mg, dose number 1, NCA mean) was 432 µg·h/mL. It also gave a Cmax ([1]; 25 mg, dose number 1, NCA mean) of 9600 ng/mL, an AUC(0-t) ([1]; 25 mg, dose number 1, NCA mean, read-out: AUC0-96) of 339 µg·h/mL and an AUC(0-t) ([1]; 25 mg, dose number 1, NCA mean, read-out: AUC0-last) of 465 µg·h/mL. For the same molecule, the half-life ([1]; 25 mg, dose number 1, NCA mean, read-out: t1/2 (converted)) was 149 h, the AUC ([1]; 25 mg, dose number 4, NCA mean) was 841 µg·h/mL and the Cmax ([1]; 25 mg, dose number 4, NCA mean) was 12400 ng/mL. It also gave an AUC(0-t) ([1]; 25 mg, dose number 4, NCA mean, read-out: AUC0-96) of 589 µg·h/mL, an AUC(0-t) ([1]; 25 mg, dose number 4, NCA mean, read-out: AUC0-last) of 611 µg·h/mL and a half-life ([1]; 25 mg, dose number 4, NCA mean, read-out: t1/2 (converted)) of 123 h. For the same molecule, the AUC ([1]; 50 mg, dose number 1, NCA mean) was 695 µg·h/mL, the Cmax ([1]; 50 mg, dose number 1, NCA mean) was 15600 ng/mL and the AUC(0-t) ([1]; 50 mg, dose number 1, NCA mean, read-out: AUC0-96) was 539 µg·h/mL. For the same molecule, the AUC(0-t) ([1]; 50 mg, dose number 1, NCA mean, read-out: AUC0-last) was 710 µg·h/mL, the half-life ([1]; 50 mg, dose number 1, NCA mean, read-out: t1/2 (converted)) was 183 h and the AUC ([1]; 50 mg, dose number 4, NCA mean) was 1640 µg·h/mL. It also gave a Cmax ([1]; 50 mg, dose number 4, NCA mean) of 21700 ng/mL, an AUC(0-t) ([1]; 50 mg, dose number 4, NCA mean, read-out: AUC0-96) of 1120 µg·h/mL and an AUC(0-t) ([1]; 50 mg, dose number 4, NCA mean, read-out: AUC0-last) of 1690 µg·h/mL. It also gave a half-life ([1]; 50 mg, dose number 4, NCA mean, read-out: t1/2 (converted)) of 228 h, an AUC [1, 5] of 1210 µg·h/mL and a Cmax [1, 5] of 29500 ng/mL. For the same molecule, the AUC(0-t) ([1]; 100 mg, dose number 1, NCA mean, read-out: AUC0-96) was 974 µg·h/mL, the AUC(0-t) ([1]; 100 mg, dose number 1, NCA mean, read-out: AUC0-last) was 1210 µg·h/mL and the half-life ([1]; 100 mg, dose number 1, NCA mean, read-out: t1/2 (converted)) was 133 h. It also gave an AUC [1, 6] of 2250 µg·h/mL, a Cmax [1, 6] of 35600 ng/mL and an AUC(0-t) ([1]; 100 mg, dose number 4, NCA mean, read-out: AUC0-96) of 1610 µg·h/mL. For the same molecule, the AUC(0-t) ([1]; 100 mg, dose number 4, NCA mean, read-out: AUC0-last) was 2380 µg·h/mL, the half-life ([1]; 100 mg, dose number 4, NCA mean, read-out: t1/2 (converted)) was 133 h and the AUC [1, 7] was 1500 µg·h/mL. It also gave a Cmax [1, 7] of 37100 ng/mL, an AUC(0-t) ([1]; 150 mg, dose number 1, NCA mean, read-out: AUC0-96) of 1190 µg·h/mL and an AUC(0-t) ([1]; 150 mg, dose number 1, NCA mean, read-out: AUC0-last) of 1440 µg·h/mL. It also gave a half-life ([1]; 150 mg, dose number 1, NCA mean, read-out: t1/2 (converted)) of 117 h, an AUC [1, 8] of 3190 µg·h/mL and a Cmax [1, 8] of 48600 ng/mL. For the same molecule, the AUC(0-t) ([1]; 150 mg, dose number 4, NCA mean, read-out: AUC0-96) was 2230 µg·h/mL, the AUC(0-t) ([1]; 150 mg, dose number 4, NCA mean, read-out: AUC0-last) was 2780 µg·h/mL and the half-life ([1]; 150 mg, dose number 4, NCA mean, read-out: t1/2 (converted)) was 128 h. The half-life ([1]; across all subjects, population PK model, read-out: Mean t1/2 (converted)) was 141 h, the “Between subject variability of CL” value ([1]; population PK model) was 75.6 % CV and the “Between subject variability of Vp” value ([1]; population PK model) was 61.2 % CV. For the same molecule, the “Apparent central volume (Vc)” value ([1]; population PK model, IV) was 2.98 L, the “Apparent clearance (CL)” value ([1]; population PK model, IV) was 0.0165 L/h and the “Apparent peripheral volume (Vp)” value ([1]; population PK model, IV) was 11.9 L. For the same molecule, the “Inhibition of tumour-associated macrophages (TAM)” value [2] was “potently inhibit”, the “pDC and NK cell activation parameters” value (pDC and NK cells; 150 mg cohort) was “unaffected or modestly responsive” and the “Subjects with at least two-fold increased numbers of activated pDC or NK cells” value (pDC and NK cells; 50 and 100 mg, 2 days after initial dose) was “six of the ten”. For the same molecule, the “Estimated median duration of SD” value ([3]; 95% confidence interval from 39 days to 62 days) was 57 days, the Disease control rate ([3]; evaluable subjects (six of sixteen), at 8 weeks) was 38% and the Best response ([3]; human, in vivo) was “stable disease up to 24 weeks”. For the same molecule, the Objective responses ([3]; monotherapy) was “No objective responses were reported”, the “Patients with stable disease (SD) at 8 weeks” value ([3]; of sixteen patients assessed, RECIST 1.1) was “six” and the “Increases in TNFα, IL-6 and IL-8 responses” value ([4]; 150 mg vs 100 mg cohort averages) was “strikingly higher at 150 mg”. The “Increase in plasma IFNγ, TNFα, IP-10 (CXCL10) and MCP-1 (CCL2)” value ([4]; after initial dose) was “up to 25 fold”.
